Measured values: PMC6222496 (Molecules : A Journal of Synthetic Chemistry and Natural …, 2018)
Read-outs that look alike come from different tables or passages of the source.

Legend:
rats [1] = details: cited from earlier work
rats [2] = details: 0.1 mg/kg; cited from earlier work
rats [3] = details: cited from earlier work; for pro-depressive effects: 2-ethoxymethyl ether Sal B 0.3 mg/kg, β-tetrahydropyran Sal B 2 mg/kg
KOPr [4] = molecular target: T1, KOPr (Homo sapiens, UniProt P41145); assay: cell-based
T1 construct: host or cells: CHO (HitHunter cell line)

hKOR = molecular target: T2, hKOR (Homo sapiens, UniProt P41145); assay: cell-based; format: cell-based
T2 construct: host or cells: U2OS (PathHunter U2OS-hKOR-βarrestin2-DX)

Sprague-Dawley rats [5] = assay: Cocaine-induced hyperactivity; format: in vivo, rat; details: 0.3 mg/kg i.p., 45 min prior to cocaine 20 mg/kg
Sprague-Dawley rats [6] = assay: Expression of behavioral sensitization to cocaine; format: in vivo, rat; details: 0.3 mg/kg i.p. on day 10, 45 min before cocaine 20 mg/kg
B6.SJL mice [7] = details: mouse, in vivo; for EC50 (antinociception, % MPE): sc
B6.SJL mice [8] = format: in vivo, mouse
Sprague Dawley rats [9] = assay: Sucrose self-administration / sucrose intake; format: in vivo, rat; details: 0.3 and 1.0 mg/kg i.p., 45 min pretreatment
Description: For sucrose reinforcement tests, rats were maintained at approximately 85% of their initial feeding weights with free access to water throughout the experiment. Rats were trained to orally self-administer a 10% sucrose solution in eight modular test chambers (Med Associates) as previously described. Rats were trained to self-administer sucrose orally using an auto-shaping procedure (45 min daily for ten days). Once stable responding was achieved, the animals were maintained on a Fixed Ratio 1 (FR1) schedule of reinforcement where depression of the active lever (left lever) led to the delivery of sucrose solution. Following oral acquisition, the response requirements were increased to an FR5 schedule of reinforcement. Daily 1 h sessions were conducted until there was less than 20% variation in responding for three consecutive days. The animals on stable FR5 reinforcements were subjected to the sucrose reinforcement test. On the test day, rats received either vehicle (75% DMSO, 1 mL/kg, i.p.) or Mesyl Sal B (0.3, 1.0 mg/kg, i.p.) and 45 min later, sucrose reinforced lever-press responding was recorded for 60 min.

rats [10] = assay: Forced swim test; format: in vivo, rat; details: 0.3 mg/kg i.p., 45 min before test
Description: The FST apparatus consisted of a cylinder (44 cm high and 20 cm in diameter) filled to 35 cm with water maintained at 25 ± 1 °C. On the habituation day, the rats were placed in the swim chamber for 15 min and the following day were administered either with Mesyl Sal B (0.3 mg/kg, i.p.) or the vehicle (75% DMSO, 1 mL/kg, i.p.) and placed in the swim chamber45 min later. The forced swimming behavior was recorded by a video camera and the climbing, swimming, or immobility behaviors were recorded for 5 min. Data were analyzed using the SMART software (version 3.0; PanLab, Barcelona, Spain).

human KOPr [11] = details: cited from earlier work
Sprague Dawley rats [12] = details: rat, in vivo
mice [13] = system: mice
rats [14] = details: rat, in vivo
rats [15] = system: rats
rats [16] = system: rats; remark: listed apart in the source
B6.SJL mice [17] = details: cited from earlier work; for duration of action (antinociceptive effects): 1 mg/kg
mice [18] = system: mice; design: method as in PMID 28263712; details: chronic escalation drinking; cited from earlier work
mice [19] = system: mice; design: method as in PMID 28263712; details: 3 mg/kg; cited from earlier work
drug naïve rats = details: cited from earlier work
Sprague-Dawley rats [20] = details: rat, in vivo; cited from earlier work
Sprague-Dawley rats [21] = details: rat, in vivo; cited from earlier work; remark: listed apart in the source
rats [22] = details: 0.16 mg/kg; cited from earlier work
KOPr [23] = molecular target: T1, KOPr; design: method as in PMID 25320048; details: human embryonic kidney cells; cited from earlier work
human KOPr [24] = details: cited from earlier work; remark: listed apart in the source
Sprague Dawley rats [25] = details: rat, in vivo; cited from earlier work
mice [26] = details: Sal A 3–10 mg/kg, for 30 min; cited from earlier work
rats [27] = details: 0.3 mg/kg; cited from earlier work
mice [28] = details: mouse, in vivo; cited from earlier work
Rhesus macaques = details: 0.01–0.1 mg/kg i.v.; cited from earlier work
mice [29] = details: 1–3.2 mg/kg; cited from earlier work
[30] = system: P-glycoprotein efflux pump; details: cited from earlier work
rhesus monkeys = details: rhesus monkey, in vivo; cited from earlier work
rat KOPr = details: cited from earlier work
B6.SJL mice [31] = details: cited from earlier work
[32] = 2 mg/kg i.p., 5 min before formaldehyde

T2 sequence (P41145 whole entry): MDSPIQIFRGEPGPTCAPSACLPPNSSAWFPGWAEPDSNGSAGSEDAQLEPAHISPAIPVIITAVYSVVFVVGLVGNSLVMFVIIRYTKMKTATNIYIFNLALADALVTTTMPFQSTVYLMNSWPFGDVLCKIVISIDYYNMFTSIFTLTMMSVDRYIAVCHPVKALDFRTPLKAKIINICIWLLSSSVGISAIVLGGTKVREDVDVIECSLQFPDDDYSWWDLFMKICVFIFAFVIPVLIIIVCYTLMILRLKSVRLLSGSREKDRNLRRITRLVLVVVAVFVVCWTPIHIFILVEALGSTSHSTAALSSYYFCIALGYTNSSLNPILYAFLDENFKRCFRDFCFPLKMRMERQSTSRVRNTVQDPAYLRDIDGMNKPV
T2 sequence (P32121 whole entry partner): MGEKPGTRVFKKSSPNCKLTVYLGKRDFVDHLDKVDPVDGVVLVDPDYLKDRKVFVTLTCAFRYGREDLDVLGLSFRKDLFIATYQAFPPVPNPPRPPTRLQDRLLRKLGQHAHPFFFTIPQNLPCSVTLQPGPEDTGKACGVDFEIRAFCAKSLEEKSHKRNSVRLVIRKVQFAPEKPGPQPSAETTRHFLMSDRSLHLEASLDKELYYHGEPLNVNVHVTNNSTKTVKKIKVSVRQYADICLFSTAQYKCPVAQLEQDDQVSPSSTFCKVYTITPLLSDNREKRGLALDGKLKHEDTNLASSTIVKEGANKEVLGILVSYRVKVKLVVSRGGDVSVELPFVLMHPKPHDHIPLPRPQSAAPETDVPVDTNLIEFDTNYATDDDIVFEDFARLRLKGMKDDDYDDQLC
T1 sequence (P41145 whole entry): as the sequence (P41145 whole entry) above

CCOCO[C@H]1C[C@@H](C(=O)OC)[C@]2(C)CC[C@H]3C(=O)O[C@H](c4ccoc4)C[C@]3(C)[C@H]2C1=O [2-ethoxymethyl ether Sal B]
cocaine-prime induced cocaine seeking (rats [1]; rats): attenuate
aversive effects in the CPA paradigm (rats [2]): did not show aversive effects
pro-depressive effects (rats [3]): did not

COC(=O)[C@@H]1C[C@H](OS(C)(=O)=O)C(=O)[C@H]2[C@@]1(C)CC[C@H]1C(=O)O[C@H](c3ccoc3)C[C@]21C [Mesyl Sal B, (2S,4aR,6aR,7R,9S,10aS,10bR)-9-(methanesulfonyloxy)-2-(3-furanyl)dodecahydro-6a, 10b-dimethyl-4,10-dioxy-2H-naptho [2,1-c]pyran-7-carboxylic acid methyl ester]
EC50 (KOPr [4]): 0.12 nM
Bias Factor (hKOR): 0.61
EC50 (hKOR): 236 nM
β-Arrestin Recruitment (PathHunter) Efficacy (hKOR): 90.2%
cocaine-induced hyperactivity (Sprague-Dawley rats [5]): suppressed
expression of cocaine behavioral sensitization (Sprague-Dawley rats [6]): suppresses
Emax (B6.SJL mice [7]): 38%
EC50 (antinociception, % MPE) (B6.SJL mice [7]): 3.0 mg/kg
pain score (B6.SJL mice [8]; mouse, in vivo): small but significant decrease
phase 1 nociceptive pain (0–15 min) (B6.SJL mice [8]; mouse, in vivo): minimally effective
phase 2 inflammatory pain (20–60 min) (B6.SJL mice [8]; mouse, in vivo): reducing phase 2 pain at the 30 min time point
formaldehyde-induced paw edema (B6.SJL mice [8]; mouse, in vivo, ip, 2 mg/kg): no significant reduction
sucrose intake (sucrose-reinforced responding) (Sprague Dawley rats [9]): no effect
swimming time (rats [10]): significant decrease
time spent immobile (rats [10]): significant increase
Ki (human KOPr [11]): 2.3 ± 0.1 nM
recognition index (RI) value (Sprague Dawley rats [12]): No change
motor impairment (latency to fall) (mice [13]; mouse, in vivo): no motor impairment
time spent in the drug-paired chamber (rats [14]): did not significantly alter
taste aversion (saccharin consumption on test day) (rats [15]; rat, in vivo): did not induce taste aversion
time spent in the open arm (rats [16]; rat, in vivo): no effect
duration of action (antinociceptive effects) (B6.SJL mice [17]; mouse, in vivo, ip): 60 min
time at which effects are seen (onset of action) (B6.SJL mice [17]; mouse, in vivo): 30 to 60 min
cocaine-prime induced reinstatement of drug seeking (rats [1]; rat, in vivo): attenuate
alcohol intake (mice [18]): attenuates
sucrose or saccharin intake (mice [19]): no effect
locomotor activity, spontaneous open field (drug naïve rats; rat, in vivo): no significant effect

COC(=O)[C@@H]1C[C@H](OC(C)=O)C(=O)[C@H]2[C@@]1(C)CC[C@H]1C(=O)O[C@H](c3ccoc3)C[C@]21C [Sal A, Salvinorin A]
Bias Factor (hKOR): 0.35
Emax (B6.SJL mice [7]): 87%
EC50 (antinociception, % MPE) (B6.SJL mice [7]): 2.1 mg/kg
phase 1 nociceptive pain (0–15 min) (B6.SJL mice [8]; [32]): significant attenuation
phase 2 inflammatory pain (20–60 min) (B6.SJL mice [8]; [32]): significant attenuation
formaldehyde-induced paw edema (B6.SJL mice [8]; 60 min after formaldehyde, Sal A 2 mg/kg i.p.): significantly reduced
motor impairment (latency to fall) (mice [13]; 2 mg/kg i.p., at 2 and 15 min): significant motor impairment
taste aversion (saccharin consumption on test day) (rats [15]; 0.3 mg/kg): no effect
time spent in the open arm (rats [16]; 1 mg/kg): significantly decreased
locomotor activity produced by acute cocaine administration (Sprague-Dawley rats [20]): increased
cocaine-induced behavioral sensitization (Sprague-Dawley rats [21]): attenuated
duration of action (antinociceptive effects) (B6.SJL mice [17]; mice, i.p.): 15 min
anxiety-related effects (rats [22]): anxiolytic effects
cocaine-prime induced cocaine seeking (rats [1]; rats): attenuate
cocaine-prime induced reinstatement of drug seeking (rats [1]; rats): attenuate
signaling bias (KOPr [23]): balanced agonist
signaling bias (human KOPr [24]; human receptor): significantly biased towards the β-arrestin2 pathway
sucrose self-administration (Sprague Dawley rats [25]): no effects
motor coordination in rotarod performance test (mice [26]): induced motor incoordination
aversion in CTA experiments (rats [27]): no aversion
depressive effects (rats [3]; 0.25–2 mg/kg, rats): induces depressive effects
anti-depressive and anxiolytic effects (rats [3]; 10–1000 μg/kg, rats): potent anti-depressive and anxiolytic effects
climbing behavior (motor coordination) (mice [28]): rapidly disrupt climbing behavior
sedation (Rhesus macaques): sedative effect
spontaneous locomotion, open field (drug naïve rats; 0.3 mg/kg, rats): did not alter
place conditioning at higher doses (mice [29]): aversion
P-glycoprotein efflux pump substrate [30]: substrate

CCC12CCN(CC3(O)CC3)C(Cc3ccc(O)cc31)C2(C)C (stereo not drawn) [bremazocine]
cocaine self-administration (rhesus monkeys): decreased
food reinforcements (rhesus monkeys): decreased

CC[C@]12CCN(CC3CC3)[C@H](C(=O)c3ccc(O)cc31)[C@@H]2C [ethylketazocine]
cocaine self-administration (rhesus monkeys): decreased
food reinforcements (rhesus monkeys): decreased

CN(C(=O)/C=C/c1ccoc1)[C@@H]1CC[C@@]2(O)[C@H]3Cc4ccc(O)c5c4[C@@]2(CCN3CC2CC2)[C@H]1O5 [nalfurafine]
signaling bias (human KOPr [24]): extreme G-protein biased signaling
signaling bias (rat KOPr): bias to a much lesser extent

Oc1ccc2c3c1O[C@H]1c4[nH]c5c(c4C[C@@]4(O)[C@@H](C2)N(CC2CC2)CC[C@]314)C[C@@]1(O)[C@H]2Cc3ccc(O)c4c3[C@@]1(CCN2CC1CC1)[C@H]5O4 [nor-BNI, Nor-binaltorphimine]
effect on U50488-induced decrease in recognition index (Sprague Dawley rats [12]): prevented

COC(=O)[C@@H]1C[C@H](OC2CCCCO2)C(=O)[C@H]2[C@@]1(C)CC[C@H]1C(=O)O[C@H](c3ccoc3)C[C@]21C (stereo partly drawn) [β-tetrahydropyran Sal B]
potency and efficacy, cumulative dose-response (B6.SJL mice [17]; compared with Sal A): more potent and more efficacious than Sal A
antinociceptive effects (B6.SJL mice [31]; intraplantar 2% formaldehyde): potent antinociceptive effects
cocaine-prime induced cocaine seeking (rats [1]; rats): attenuate
pro-depressive effects (rats [3]): did not

RB-64
motor coordination in rotarod performance test (mice [26]): did not cause any motor deficits

spirobutyrolactone Sal B
formaldehyde-induced paw edema (B6.SJL mice [31]): significantly reduced
nociceptive phase of pain (B6.SJL mice [31]): did not reduce
antinociceptive effects, inflammatory phase (B6.SJL mice [31]; intraplantar 2% formaldehyde): potent antinociceptive effects
